Laboratory results: article PMC3914206

Key:
Type in all cases: binding
Parameters in all cases: KINOMEscan: ABL1(F317L)-phosphorylated / KINOMEscan: ABL1(H396P)-nonphosphorylated / KINOMEscan: ABL1(H396P)-phosphorylated / KINOMEscan: ABL1(M351T)-phosphorylated / KINOMEscan: ABL1(T315I)-phosphorylated / KINOMEscan: ABL1-nonphosphorylated / KINOMEscan: ABL1-phosphorylated / KINOMEscan: ACVR2A / KINOMEscan: ACVR2B / KINOMEscan: ADCK3 / KINOMEscan: ADCK4 / KINOMEscan: AKT1 / KINOMEscan: AKT3 / KINOMEscan: ALK / KINOMEscan: ARK5 / KINOMEscan: AURKA / KINOMEscan: AURKC / KINOMEscan: BIKE / KINOMEscan: BMPR1A / KINOMEscan: BMPR1B / KINOMEscan: BMX / KINOMEscan: BRK / KINOMEscan: BRSK1 / KINOMEscan: BRSK2 / KINOMEscan: CAMK1 / KINOMEscan: CAMK1D / KINOMEscan: CAMK1G / KINOMEscan: CAMK2A / KINOMEscan: CAMK2B / KINOMEscan: AAK1 / KINOMEscan: CAMK2D / KINOMEscan: CAMK2G / KINOMEscan: ABL1(F317I)-nonphosphorylated / KINOMEscan: ABL1(F317I)-phosphorylated / KINOMEscan: ABL1(F317L)-nonphosphorylated: unit: % Ctrl
Details in all cases: Compound Concentration 10 µM
panel of 442 kinases [1] = target: T1, panel of 442 kinases (Homo sapiens, UniProt Q9P1W9)
T1 construct: purchased KINOMEscan
Description: (§1) We assessed the selectivity of members of this scaffold using the KINOMEscan methodology across a near comprehensive panel of 442 kinases [[18,27]].

panel of 442 kinases [2] = target: T2, panel of 442 kinases (Homo sapiens, UniProt Q9UQB9)
T2 construct: purchased KINOMEscan
T2 sequence (Q9UQB9 1-309): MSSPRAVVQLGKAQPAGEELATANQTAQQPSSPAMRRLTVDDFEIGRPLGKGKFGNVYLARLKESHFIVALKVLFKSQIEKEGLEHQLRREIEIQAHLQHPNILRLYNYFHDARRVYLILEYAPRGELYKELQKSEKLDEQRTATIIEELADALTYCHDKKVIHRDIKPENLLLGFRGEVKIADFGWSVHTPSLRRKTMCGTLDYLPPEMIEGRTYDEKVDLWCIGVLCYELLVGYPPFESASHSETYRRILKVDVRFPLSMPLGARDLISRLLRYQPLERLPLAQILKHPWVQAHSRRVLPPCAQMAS
Description: as §1

panel of 442 kinases [3] = target: T3, panel of 442 kinases (Homo sapiens, UniProt Q9HAZ1)
T3 construct: purchased KINOMEscan
Description: as §1

T3 sequence (Q9HAZ1 whole entry): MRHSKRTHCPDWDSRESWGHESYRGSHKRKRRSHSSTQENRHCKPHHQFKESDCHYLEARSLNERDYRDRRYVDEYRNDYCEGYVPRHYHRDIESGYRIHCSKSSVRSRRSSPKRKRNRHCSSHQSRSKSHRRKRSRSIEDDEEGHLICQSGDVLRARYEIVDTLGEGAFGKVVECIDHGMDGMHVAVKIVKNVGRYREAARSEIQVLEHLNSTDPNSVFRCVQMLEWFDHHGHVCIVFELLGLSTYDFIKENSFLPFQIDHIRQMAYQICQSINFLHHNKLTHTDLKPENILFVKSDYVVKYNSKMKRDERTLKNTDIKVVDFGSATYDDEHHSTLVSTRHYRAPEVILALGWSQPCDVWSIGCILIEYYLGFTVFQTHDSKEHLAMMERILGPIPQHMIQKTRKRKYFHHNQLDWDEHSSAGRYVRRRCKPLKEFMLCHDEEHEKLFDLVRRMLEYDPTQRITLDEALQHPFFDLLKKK
T1 sequence (Q9P1W9 whole entry): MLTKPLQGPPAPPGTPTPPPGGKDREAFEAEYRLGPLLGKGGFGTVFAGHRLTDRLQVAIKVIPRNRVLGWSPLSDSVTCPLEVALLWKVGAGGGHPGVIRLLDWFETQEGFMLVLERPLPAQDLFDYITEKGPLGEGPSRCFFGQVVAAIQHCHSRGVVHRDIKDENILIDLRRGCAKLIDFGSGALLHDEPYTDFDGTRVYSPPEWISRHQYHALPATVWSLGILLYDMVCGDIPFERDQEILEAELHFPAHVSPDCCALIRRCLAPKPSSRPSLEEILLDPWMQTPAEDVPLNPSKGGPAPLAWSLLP

## COc1cc(C(=O)N2CCC(N3CCN(C)CC3)CC2)ccc1Nc1ncc2c(n1)N(C)c1ccccc1C(=O)N2C [15 (LRRK2-IN-1)]
Panel of 442 kinases [1]
  KINOMEscan: PIM2: 100
Panel of 442 kinases [2]
  KINOMEscan: AURKC: 50
Panel of 442 kinases [3]
  KINOMEscan: CLK4: 54

## COc1cc(C(=O)N2CCC(N3CCN(C)CC3)CC2)ccc1Nc1ncc2c(n1)N1CCc3cccc(c31)C(=O)N2C [Compound 24]
Panel of 442 kinases [1]
  KINOMEscan: PIM2: 85
Panel of 442 kinases [2]
  KINOMEscan: AURKC: 50
Panel of 442 kinases [3]
  KINOMEscan: CLK4: 11

## COc1cc(C(=O)N2CCC(N3CCN(C)CC3)CC2)ccc1Nc1ncc2c(n1)N(C1CCCC1)c1ccccc1C(=O)N2C [Compound 25, 11-cyclopentyl-2-((2-methoxy-4-(4-(4-methylpiperazin-1-yl)piperidine-1-carbonyl)phenyl)amino)-5-methyl-5H-benzo[e]pyrimido[5,4-b][1,4]diazepin-6(11H)-one]
Panel of 442 kinases [1]
  KINOMEscan: PIM2: 100
Panel of 442 kinases [2]
  KINOMEscan: AURKC: 38
Panel of 442 kinases [3]
  KINOMEscan: CLK4: 100

## CCOc1cc(C(=O)N2CCC(N3CCN(C)CC3)CC2)ccc1Nc1ncc2c(n1)N(C1CCCC1)c1ccccc1C(=O)N2C [Compound 26]
Panel of 442 kinases [1]
  KINOMEscan: PIM2: 100
Panel of 442 kinases [2]
  KINOMEscan: AURKC: 66
Panel of 442 kinases [3]
  KINOMEscan: CLK4: 100
